Structures can show the parent of a compound that is named as a salt.
Columns and labels:
[1] = in distilled water; bitartrate salt form; cited from earlier work
[2] = Dialysis test of vinorelbine incorporation into the oil phase of an emulsion; settings: for effect of stabilizer on vinorelbine incorporation into the oil phase (vinorelbine concentration in PBS): dialysis against PBS pH 7.4, emulsion with […] (w/w) vinorelbine bitartrate, FIG. 1
Protocol: The concentration of each stabilizer added into formulation is: 1.57% (w/w) for sodium oleate, 2.73% (w/w) for vitamin E succinate, 2.46% (w/w) for riboflavin-5-phosphate sodium and 2.52% (w/w) for cholesterol sulfate. A formulation without any stabilizer (“control”) and a formulation with extra Phospholipon 90G were also evaluated in the study.
The drug incorporation into the oil phase was tested using a dialysis method developed specifically for this purpose. This method involved filling 500 mg of an emulsion into a Slide-A-Lyzer dialysis cassette with 10,000 MW cutoffs, placing the cassette in 70 mL phosphate buffered saline (PBS), pH 7.4 and shaking the solution on a platform shaker at 100 RPM.

Row | Compound | effect of stabilizer on vinorelbine incorporation into the oil phase (vinorelbine concentration in PBS) [2] | further results
1 | CCC1=C[C@@H]2CN(C1)Cc1c([nH]c3ccccc13)[C@@](C(=O)OC)(c1cc3c(cc1OC)N(C)[C@H]1[C@@](O)(C(=O)OC)[C@H](OC(C)=O)[C@]4(CC)C=CCN5CC[C@]31[C@@H]54)C2 (relative stereo) [vinorelbine bitartrate, 3′,4′-didehydro-4′-deoxy-C′-norvincaleukoblastine [R-(R*,R*)-2,3-dihydroxybutanedioate (1:2) (salt)]] |  | aqueous solubility [1]: > 1000 mg/mL
2 | Cc1c(C)c2c(c(C)c1OC(=O)CCC(=O)O)CC[C@@](C)(CCC[C@H](C)CCC[C@H](C)CCCC(C)C)O2 [Vitamin E succinate, vitamin E succinate] | most effective stabilizers | 
3 | Cc1cc2nc3c(=O)[nH]c(=O)nc-3n(C[C@H](O)[C@H](O)[C@H](O)COP(=O)([O-])O)c2cc1C.[Na+] [riboflavin-5-phosphate, riboflavin-5-phosphate sodium] | most effective stabilizers | 
4 | CCCCCCCC/C=C\CCCCCCCC(=O)[O-].[Na+] [sodium oleate] | most effective stabilizers | partition of vinorelbine into the aqueous phase ([2]; vinorelbine-to-oleate molar ratio of 1:4 (charge ratio of 1:1), dialysis, 28 hours, FIG. 2): almost completely stopped the partition of vinorelbine into the aqueous phase
5 | CCC1=C[C@@H]2CN(C1)Cc1c([nH]c3ccccc13)[C@@](C(=O)OC)(c1cc3c(cc1OC)N(C)[C@H]1[C@@](O)(C(=O)OC)[C@H](OC(C)=O)[C@]4(CC)C=CCN5CC[C@]31[C@@H]54)C2 [vinorelbine, reference compound] |  | incorporation of vinorelbine in the oil phase ([2]; emulsion without a stabilizer): present primarily in the aqueous phase

Reference: patent US8222268B2, “Methods for reducing vein irritation” (Adventrx Pharmaceuticals, Inc., priority 2004, dated 2012)
